# How the values were obtained:
# Type in all cases: physicochemical
# [1] = Stability of drugs in Nitto adhesive
# Protocol: The mixed solutions were coated onto PET film and heated at 80° C. for 20 minutes. The content of drug was determined immediately after preparation and after storage for 6 days at 60° C.
# [2] = Stability of drug-containing patches, adhesive of the invention; conditions: 6 days at 60° C.
# Protocol: The mixed solutions were coated onto PET film and heated at 80° C. for 20 minutes. The content of drug was determined both immediately after preparation and after storage at 6 days at 60° C.
# [3] = Saturation concentration of drugs in adhesives (crystallisation); design: key: No crystallisation. Drug is dissolved; ¦: Crystallisation; conditions: IPM 1.0 g
# From the text: Oestradiol (a hydrophobic drug) and piroxicam (a hydrophilic drug), were investigated to establish their saturation concentrations in the two adhesives. As before, formulations 3 in each of Tables 9 and 10 were used.
# [4] = Bakelite 180° peel strength test
# Protocol: Peel strength was measured by coating each sample onto a PET strip 25 mm wide and 100 mm long and applying the strip to a bakelite plate. Then, a roller having a load of 300 g is rolled back and forth thereon to secure the sample to the plate. The sample is subsequently peeled off at an angle of 180° at a rate of 300 mm/min. to determine peel force. Unless otherwise specified, peel force is measured herein by this test.
# In this Example, PET strips were 20 mm in width. In the adhesive of Example 1, adipic acid diamine was dissolved in methanol+water (19:1 by volume) to a concentration of 0.5%.
# The Nitto Adhesive was dissolved in ethyl acetate. The cross-linking agent (aluminium tri-acetylacetonate) was dissolved in acetylacetone+ethylacetate (1:1 by volume) solution to a concentration of 0.5%.
# IPM was used as plasticiser for both. Heating was at 80° C. for 20 minutes in both cases.
# [5] = Nitto Adhesive 1.0 g, cross-linker 10 mg, drug 40
# [6] = Nitto Adhesive 1.0 g, cross-linker 10 mg, drug 50
# [7] = Nitto Adhesive 1.0 g, cross-linker 10 mg, drug 75
# [8] = Adhesive B from Example 11, diethylene triamine 20 mg as cross-linker
# [9] = allyl acetoacetate polymer of Example 9, 0.8 g of plasticiser, adipic acid diamine cross-linked
SMILES,deterioration of drug content after storage [2],"Crystallisation [3, 5]","Crystallisation [3, 6]","Crystallisation [3, 7]","Adhesion strength [4, 8] [g/25 mm]","Adhesion strength [4, 9] [g/20 mm]",also measured
C=C1CC[C@H](O)C/C1=C/C=C1\CCC[C@]2(C)[C@@H]([C@H](C)/C=C/[C@H](C)C(C)C)CC[C@@H]12 [vitamin D2],no measurable deterioration,–,–,–,–,–,"decomposed further during the 6 day storage period ([1]; 6 days at 60° C.): 20%; decomposed during the preparation process ([1]; coated onto PET film, 80° C. for 20 minutes): ca. 30%"
CN1C(C(=O)Nc2ccccn2)=C(O)c2ccccc2S1(=O)=O [Piroxicam],no measurable deterioration,¦,¦,¦,–,–,"stability of drug ([1]; during the preparation process and after heating 60° C. for 6 days): stable; Crystallisation ([3]; Adhesive of invention 1.0 g, cross-linker 3.0 mg, drug 50): ¦; Crystallisation ([3]; Adhesive of invention 1.0 g, cross-linker 3.0 mg, drug 75): ¦"
"CCCCCCCCCCCCCC(=O)OC(C)C [IPM, isopropyl myristate]",–,–,–,–,30,80,–
"CCCCCCCC/C=C\CCCCCCCC(=O)OC [MO, methyl oleate]",–,–,–,–,35,95,–
C[C@]12CC[C@@H]3c4ccc(O)cc4CC[C@H]3[C@@H]1CC[C@@H]2O [oestradiol],–,¦,¦,¦,–,–,"Crystallisation ([3]; Adhesive of invention 1.0 g, cross-linker 3.0 mg, drug 120 mg): ¦; Crystallisation ([3]; Adhesive of invention 1.0 g, cross-linker 3.0 mg, drug 150 mg): ¦"
